Values quoted from earlier work as cited in patent US6681132B1, “Sodium magnetic reasonance imaging used in diagnosing tumors and assessing response to treatment” (The Trustees of Columbia University in the City of New York, priority 1999, dated 2004).

Test system: L cells
Settings: K+ loss exceeds Na+ gain; cited from earlier work

O=C(O)c1nn(Cc2ccc(Cl)cc2Cl)c2ccccc12 [lonidamine]
effect on total cellular monovalent cations: net reduction
